Assay results reported in paper PMC7280144 (Acta Pharmaceutica Sinica. B, 2020).

Target: T1, ATP-binding cassette subfamily G member 2 (ABCG2) (Homo sapiens, UniProt Q9UNQ0)
T1 sequence (Q9UNQ0 1-655): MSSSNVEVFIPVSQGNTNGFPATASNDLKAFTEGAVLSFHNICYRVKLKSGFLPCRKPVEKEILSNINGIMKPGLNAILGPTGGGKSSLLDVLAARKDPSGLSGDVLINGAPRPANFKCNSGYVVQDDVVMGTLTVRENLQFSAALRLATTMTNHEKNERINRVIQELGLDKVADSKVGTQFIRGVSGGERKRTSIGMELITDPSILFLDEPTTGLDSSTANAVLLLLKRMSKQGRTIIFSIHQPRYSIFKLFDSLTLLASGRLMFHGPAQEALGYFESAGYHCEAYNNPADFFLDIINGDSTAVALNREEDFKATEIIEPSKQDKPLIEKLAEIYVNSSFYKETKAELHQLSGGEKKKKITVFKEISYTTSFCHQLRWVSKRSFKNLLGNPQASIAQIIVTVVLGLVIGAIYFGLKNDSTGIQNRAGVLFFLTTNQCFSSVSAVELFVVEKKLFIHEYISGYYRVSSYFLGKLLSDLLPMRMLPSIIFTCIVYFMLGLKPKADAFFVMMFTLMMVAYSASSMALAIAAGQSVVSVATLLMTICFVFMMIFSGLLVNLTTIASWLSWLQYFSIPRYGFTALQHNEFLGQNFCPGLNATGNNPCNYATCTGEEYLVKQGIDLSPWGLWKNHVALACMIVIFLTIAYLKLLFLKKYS
Experiment: competition of […]-IAAP photoaffinity labeling in crude membranes

C=CC(=O)Nc1cccc(Nc2nc(Nc3ccc(N4CCN(C(C)=O)CC4)cc3OC)ncc2C(F)(F)F)c1 [rociletinib]
competition of [125I]-IAAP photoaffinity labeling in crude membranes; also vanad: ~ 5 μmol/L
